Source: article PMC6149898, “GPCR Modulation of Thieno[2,3-b]pyridine Anti-Proliferative Agents” (Molecules : A Journal of Synthetic Chemistry and Natural …, 2017)

Legend:
BR:MCF7 = tested on: BR:MCF7; parameters: method as in earlier work; settings: NCI-60 panel; ref [4],[5],[6],[7]; cited from earlier work
BR:T-47D = tested on: BR:T-47D; parameters: method as in earlier work; settings: NCI-60 panel; ref [4],[5],[6],[7]; cited from earlier work
LE:MOLT-4 = tested on: LE:MOLT-4; parameters: method as in earlier work; settings: NCI-60 panel; ref [4],[5],[6],[7]; cited from earlier work
ME:MALME-3M = tested on: ME:MALME-3M; parameters: method as in earlier work; settings: NCI-60 panel; ref [4],[5],[6],[7]; cited from earlier work
PR:DU-145 = tested on: PR:DU-145; parameters: method as in earlier work; settings: NCI-60 panel; ref [4],[5],[6],[7]; cited from earlier work
RE:786-0 = tested on: RE:786-0; parameters: method as in earlier work; settings: NCI-60 panel; ref [4],[5],[6],[7]; cited from earlier work
RE:CAKI-1 = tested on: RE:CAKI-1; parameters: method as in earlier work; settings: NCI-60 panel; ref [4],[5],[6],[7]; cited from earlier work
ADCYAP1R1 = ADCYAP1R1 (Homo sapiens, UniProt P41586); assay: gpcrMAX PathHunter beta-arrestin
ADORA3 = ADORA3 (Homo sapiens, UniProt P0DMS8); assay: gpcrMAX PathHunter beta-arrestin
AVPR1A = AVPR1A (Homo sapiens, UniProt P37288); assay: gpcrMAX PathHunter beta-arrestin
C5L2 = C5L2 (Homo sapiens, UniProt Q9P296); assay: gpcrMAX PathHunter beta-arrestin
CALCRL-RAMP2 = CALCRL-RAMP2 (Homo sapiens, UniProt O60895+Q16602); assay: gpcrMAX PathHunter beta-arrestin
CCR3 = CCR3 (Homo sapiens, UniProt P51677); assay: gpcrMAX PathHunter beta-arrestin
CCR5 = CCR5 (Homo sapiens, UniProt P51681); assay: gpcrMAX PathHunter beta-arrestin
CNR1 = CNR1 (Homo sapiens, UniProt P21554); assay: gpcrMAX PathHunter beta-arrestin
CNR2 = CNR2 (Homo sapiens, UniProt P34972); assay: gpcrMAX PathHunter beta-arrestin
DRD5 = DRD5 (Homo sapiens, UniProt P21918); assay: gpcrMAX PathHunter beta-arrestin
EDG3 = EDG3 (Homo sapiens, UniProt Q99500); assay: gpcrMAX PathHunter beta-arrestin
EDG4 = EDG4 (Homo sapiens, UniProt Q9HBW0); assay: gpcrMAX PathHunter beta-arrestin
FPRL1 = FPRL1 (Homo sapiens, UniProt P25090); assay: gpcrMAX PathHunter beta-arrestin
GPR109B = GPR109B (Homo sapiens, UniProt P49019); assay: gpcrMAX PathHunter beta-arrestin
HRH4 = HRH4 (Homo sapiens, UniProt Q9H3N8); assay: gpcrMAX PathHunter beta-arrestin
HTR1E = HTR1E (Homo sapiens, UniProt P28566); assay: gpcrMAX PathHunter beta-arrestin
HTR2A = HTR2A (Homo sapiens, UniProt P28223); assay: gpcrMAX PathHunter beta-arrestin
MC5R = MC5R (Homo sapiens, UniProt P33032); assay: gpcrMAX PathHunter beta-arrestin
MRGPRX2 = MRGPRX2 (Homo sapiens, UniProt Q96LB1); assay: gpcrMAX PathHunter beta-arrestin
MTNR1A = MTNR1A (Homo sapiens, UniProt P48039); assay: gpcrMAX PathHunter beta-arrestin
NMU1R = NMU1R (Homo sapiens, UniProt Q9HB89); assay: gpcrMAX PathHunter beta-arrestin
NPFFR1 = NPFFR1 (Homo sapiens, UniProt Q9GZQ6); assay: gpcrMAX PathHunter beta-arrestin
OPRD1 = OPRD1 (Homo sapiens, UniProt P41143); assay: gpcrMAX PathHunter beta-arrestin
OXER1 = OXER1 (Homo sapiens, UniProt Q8TDS5); assay: gpcrMAX PathHunter beta-arrestin
P2RY1 = P2RY1 (Homo sapiens, UniProt P47900); assay: gpcrMAX PathHunter beta-arrestin
PROKR1 = PROKR1 (Homo sapiens, UniProt Q8TCW9); assay: gpcrMAX PathHunter beta-arrestin
PTGIR = PTGIR (Homo sapiens, UniProt P43119); assay: gpcrMAX PathHunter beta-arrestin
PTHR1 = PTHR1 (Homo sapiens, UniProt Q03431); assay: gpcrMAX PathHunter beta-arrestin
PTHR2 = PTHR2 (Homo sapiens, UniProt P49190); assay: gpcrMAX PathHunter beta-arrestin
SSTR2 = SSTR2 (Homo sapiens, UniProt P30874); assay: gpcrMAX PathHunter beta-arrestin
TRHR = TRHR (Homo sapiens, UniProt P34981); assay: gpcrMAX PathHunter beta-arrestin
TSHR(L) = TSHR(L) (Homo sapiens, UniProt P16473); assay: gpcrMAX PathHunter beta-arrestin
VIPR2 = VIPR2 (Homo sapiens, UniProt P41587); assay: gpcrMAX PathHunter beta-arrestin

Chain of GPR109B (P49019 whole entry): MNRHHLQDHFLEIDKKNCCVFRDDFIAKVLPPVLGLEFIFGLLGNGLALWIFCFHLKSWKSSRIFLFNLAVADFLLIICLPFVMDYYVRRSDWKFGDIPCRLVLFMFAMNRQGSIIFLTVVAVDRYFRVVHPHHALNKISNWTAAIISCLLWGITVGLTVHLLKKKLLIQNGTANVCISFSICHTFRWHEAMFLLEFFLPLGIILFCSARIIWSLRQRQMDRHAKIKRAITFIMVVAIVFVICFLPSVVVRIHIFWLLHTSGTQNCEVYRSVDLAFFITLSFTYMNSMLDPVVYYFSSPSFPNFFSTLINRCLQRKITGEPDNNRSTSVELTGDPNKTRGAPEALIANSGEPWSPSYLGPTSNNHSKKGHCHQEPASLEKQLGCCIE
Chain of PROKR1 (Q8TCW9 whole entry): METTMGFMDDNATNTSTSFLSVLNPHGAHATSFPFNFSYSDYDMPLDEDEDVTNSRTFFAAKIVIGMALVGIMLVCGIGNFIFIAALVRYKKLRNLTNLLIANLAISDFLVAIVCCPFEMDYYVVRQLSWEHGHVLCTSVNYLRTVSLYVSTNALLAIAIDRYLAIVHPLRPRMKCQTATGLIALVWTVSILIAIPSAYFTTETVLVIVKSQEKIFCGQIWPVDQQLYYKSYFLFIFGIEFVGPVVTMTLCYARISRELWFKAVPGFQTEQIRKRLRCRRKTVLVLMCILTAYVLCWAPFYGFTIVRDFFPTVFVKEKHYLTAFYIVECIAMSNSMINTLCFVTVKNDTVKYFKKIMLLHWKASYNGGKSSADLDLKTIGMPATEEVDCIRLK
Chain of MRGPRX2 (Q96LB1 whole entry): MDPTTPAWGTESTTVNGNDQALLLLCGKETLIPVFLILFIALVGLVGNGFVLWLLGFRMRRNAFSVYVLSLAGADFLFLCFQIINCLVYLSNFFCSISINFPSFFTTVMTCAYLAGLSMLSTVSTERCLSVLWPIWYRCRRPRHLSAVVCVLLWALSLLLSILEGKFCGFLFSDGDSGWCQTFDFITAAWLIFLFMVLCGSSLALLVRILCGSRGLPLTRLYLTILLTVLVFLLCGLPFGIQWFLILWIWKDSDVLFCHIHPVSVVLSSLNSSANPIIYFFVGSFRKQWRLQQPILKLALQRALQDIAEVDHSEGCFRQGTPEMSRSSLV
Chain of FPRL1 (P25090 whole entry): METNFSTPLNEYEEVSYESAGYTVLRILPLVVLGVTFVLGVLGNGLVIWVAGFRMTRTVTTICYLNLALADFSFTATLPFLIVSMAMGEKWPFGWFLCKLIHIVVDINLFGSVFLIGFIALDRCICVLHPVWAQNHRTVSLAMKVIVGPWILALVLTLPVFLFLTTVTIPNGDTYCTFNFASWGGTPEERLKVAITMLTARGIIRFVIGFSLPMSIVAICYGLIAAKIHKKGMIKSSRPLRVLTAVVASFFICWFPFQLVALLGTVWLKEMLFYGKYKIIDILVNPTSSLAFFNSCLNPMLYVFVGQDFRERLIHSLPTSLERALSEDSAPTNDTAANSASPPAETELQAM
Chain of AVPR1A (P37288 whole entry): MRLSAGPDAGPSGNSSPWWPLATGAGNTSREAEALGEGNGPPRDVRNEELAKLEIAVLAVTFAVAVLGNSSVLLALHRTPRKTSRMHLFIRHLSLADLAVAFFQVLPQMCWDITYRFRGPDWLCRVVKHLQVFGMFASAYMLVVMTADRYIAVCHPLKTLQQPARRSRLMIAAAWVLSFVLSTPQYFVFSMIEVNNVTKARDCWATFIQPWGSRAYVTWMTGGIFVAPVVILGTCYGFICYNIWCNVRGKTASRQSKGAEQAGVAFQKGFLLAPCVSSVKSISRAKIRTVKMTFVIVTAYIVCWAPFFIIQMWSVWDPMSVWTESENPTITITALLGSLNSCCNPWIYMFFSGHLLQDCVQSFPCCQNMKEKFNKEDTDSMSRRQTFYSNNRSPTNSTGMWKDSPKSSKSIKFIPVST
Chain of DRD5 (P21918 whole entry): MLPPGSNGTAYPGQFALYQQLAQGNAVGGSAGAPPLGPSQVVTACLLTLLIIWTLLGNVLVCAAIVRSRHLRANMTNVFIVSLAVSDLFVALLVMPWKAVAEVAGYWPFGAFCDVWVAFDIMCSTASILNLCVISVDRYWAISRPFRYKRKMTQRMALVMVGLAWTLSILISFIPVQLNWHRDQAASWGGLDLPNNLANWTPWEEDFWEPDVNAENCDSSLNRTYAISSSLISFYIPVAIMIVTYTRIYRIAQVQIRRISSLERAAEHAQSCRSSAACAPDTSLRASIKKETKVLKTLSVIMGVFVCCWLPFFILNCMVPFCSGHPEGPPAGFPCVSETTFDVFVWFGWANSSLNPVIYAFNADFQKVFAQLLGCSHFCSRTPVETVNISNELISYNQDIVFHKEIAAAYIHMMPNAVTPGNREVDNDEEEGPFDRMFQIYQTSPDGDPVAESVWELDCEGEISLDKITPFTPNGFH
Chain of CCR3 (P51677 whole entry): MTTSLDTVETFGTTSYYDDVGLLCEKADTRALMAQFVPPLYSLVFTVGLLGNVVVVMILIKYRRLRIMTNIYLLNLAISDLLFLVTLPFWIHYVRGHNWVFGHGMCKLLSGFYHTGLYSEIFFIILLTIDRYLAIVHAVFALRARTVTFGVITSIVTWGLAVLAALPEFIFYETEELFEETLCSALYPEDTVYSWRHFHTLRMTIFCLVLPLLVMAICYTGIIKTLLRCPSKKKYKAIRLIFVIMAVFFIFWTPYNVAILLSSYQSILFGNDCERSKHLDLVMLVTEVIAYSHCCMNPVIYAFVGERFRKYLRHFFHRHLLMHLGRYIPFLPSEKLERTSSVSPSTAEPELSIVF
Chain of HTR1E (P28566 whole entry): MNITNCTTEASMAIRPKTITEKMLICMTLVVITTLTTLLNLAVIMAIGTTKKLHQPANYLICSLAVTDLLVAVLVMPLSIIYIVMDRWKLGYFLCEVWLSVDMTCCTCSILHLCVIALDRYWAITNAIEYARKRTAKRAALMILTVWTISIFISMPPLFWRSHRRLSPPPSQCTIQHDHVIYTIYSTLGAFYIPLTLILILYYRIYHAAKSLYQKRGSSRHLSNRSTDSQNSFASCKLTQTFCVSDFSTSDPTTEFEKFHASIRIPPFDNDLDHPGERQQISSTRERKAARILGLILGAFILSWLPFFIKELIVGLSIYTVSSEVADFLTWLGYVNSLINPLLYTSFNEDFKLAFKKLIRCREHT
Chain of PTHR2 (P49190 25-550): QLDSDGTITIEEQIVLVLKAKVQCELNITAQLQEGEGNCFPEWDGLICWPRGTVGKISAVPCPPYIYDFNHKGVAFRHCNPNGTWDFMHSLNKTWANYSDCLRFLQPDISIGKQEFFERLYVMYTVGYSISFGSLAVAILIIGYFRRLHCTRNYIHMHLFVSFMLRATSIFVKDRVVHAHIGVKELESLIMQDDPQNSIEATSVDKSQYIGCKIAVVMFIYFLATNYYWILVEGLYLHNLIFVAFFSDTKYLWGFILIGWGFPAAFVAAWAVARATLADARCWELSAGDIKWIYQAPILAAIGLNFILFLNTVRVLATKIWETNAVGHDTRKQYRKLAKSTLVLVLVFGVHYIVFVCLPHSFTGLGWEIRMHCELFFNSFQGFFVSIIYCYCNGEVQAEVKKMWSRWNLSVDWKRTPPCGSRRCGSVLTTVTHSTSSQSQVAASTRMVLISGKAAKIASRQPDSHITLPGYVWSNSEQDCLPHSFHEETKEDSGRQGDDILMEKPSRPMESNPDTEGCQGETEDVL
Chain of OXER1 (Q8TDS5 whole entry): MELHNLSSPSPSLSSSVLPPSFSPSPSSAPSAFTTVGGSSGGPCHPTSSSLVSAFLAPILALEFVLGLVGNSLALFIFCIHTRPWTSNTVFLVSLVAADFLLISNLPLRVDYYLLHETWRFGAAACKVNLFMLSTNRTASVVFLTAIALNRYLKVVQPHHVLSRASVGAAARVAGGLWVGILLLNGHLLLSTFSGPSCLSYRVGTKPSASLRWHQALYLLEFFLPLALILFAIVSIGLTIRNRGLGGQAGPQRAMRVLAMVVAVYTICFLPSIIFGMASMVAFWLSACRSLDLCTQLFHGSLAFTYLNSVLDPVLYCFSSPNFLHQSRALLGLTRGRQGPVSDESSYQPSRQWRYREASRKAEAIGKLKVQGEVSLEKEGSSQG
Chain of EDG4 (Q9HBW0 whole entry): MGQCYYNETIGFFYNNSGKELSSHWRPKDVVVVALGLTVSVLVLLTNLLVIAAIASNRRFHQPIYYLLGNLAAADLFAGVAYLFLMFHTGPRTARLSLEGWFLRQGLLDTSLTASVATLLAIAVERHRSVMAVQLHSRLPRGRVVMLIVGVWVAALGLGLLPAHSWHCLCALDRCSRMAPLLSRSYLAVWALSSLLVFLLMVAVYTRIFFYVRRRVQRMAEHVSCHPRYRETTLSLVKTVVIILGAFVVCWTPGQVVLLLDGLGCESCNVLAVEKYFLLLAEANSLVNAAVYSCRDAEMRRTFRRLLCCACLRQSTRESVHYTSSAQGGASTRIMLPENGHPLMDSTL
Chain of PTGIR (P43119 whole entry): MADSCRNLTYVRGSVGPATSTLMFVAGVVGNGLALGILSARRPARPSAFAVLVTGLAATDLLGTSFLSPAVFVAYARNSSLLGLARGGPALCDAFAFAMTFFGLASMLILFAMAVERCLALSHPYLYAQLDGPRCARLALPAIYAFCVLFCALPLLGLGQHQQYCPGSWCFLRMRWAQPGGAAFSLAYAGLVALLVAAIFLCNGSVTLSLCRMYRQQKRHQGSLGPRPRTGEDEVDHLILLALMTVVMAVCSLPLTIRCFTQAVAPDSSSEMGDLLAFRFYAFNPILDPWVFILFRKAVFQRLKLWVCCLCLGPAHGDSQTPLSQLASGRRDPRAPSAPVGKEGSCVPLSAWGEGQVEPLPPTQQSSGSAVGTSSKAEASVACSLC

SMILES: Cc1c(Cl)cccc1NC(=O)c1sc2nc3c(cc2c1N)C(=O)CCC3 [Compound 1]
- GI50 (BR:MCF7): 46.4 nM
- GI50 (BR:T-47D): 55 nM
- GI50 (LE:MOLT-4): 476 nM
- GI50 (ME:MALME-3M): 36.3 nM
- GI50 (PR:DU-145): 152 nM
- GI50 (RE:786-0): 103 nM
- GI50 (RE:CAKI-1): 46.1 nM
- inhibition at 10 µM (ADCYAP1R1): 23%
- inhibition at 10 µM (ADORA3): 25%
- inhibition at 10 µM (AVPR1A): -12%
- inhibition at 10 µM (C5L2): -20%
- inhibition at 10 µM (CALCRL-RAMP2): -23%
- inhibition at 10 µM (CCR3): -47%
- inhibition at 10 µM (CCR5): 11%
- inhibition at 10 µM (CNR1): 23%
- inhibition at 10 µM (CNR2): 16%
- inhibition at 10 µM (DRD5): -31%
- inhibition at 10 µM (EDG3): -2%
- inhibition at 10 µM (EDG4): 7%
- inhibition at 10 µM (FPRL1): 11%
- inhibition at 10 µM (GPR109B): 7%
- inhibition at 10 µM (HRH4): 32%
- inhibition at 10 µM (HTR1E): 19%
- inhibition at 10 µM (HTR2A): -1%
- inhibition at 10 µM (MC5R): 20%
- inhibition at 10 µM (MRGPRX2): -1%
- inhibition at 10 µM (MTNR1A): -15%
- inhibition at 10 µM (NMU1R): 2%
- inhibition at 10 µM (NPFFR1): -55%
- inhibition at 10 µM (OPRD1): -26%
- inhibition at 10 µM (OXER1): -1%
- inhibition at 10 µM (P2RY1): 24%
- inhibition at 10 µM (PROKR1): 6%
- inhibition at 10 µM (PTGIR): 8%
- inhibition at 10 µM (PTHR1): 12%
- inhibition at 10 µM (PTHR2): 7%
- inhibition at 10 µM (SSTR2): 9%
- inhibition at 10 µM (TRHR): 13%
- inhibition at 10 µM (TSHR(L)): -24%
- inhibition at 10 µM (VIPR2): 12%
